# Measured values: ChEMBL document CHEMBL4130638, “Discovery of the Polyamine Conjugate with Benzo[ cd]indol-2(1 H)-one as a Lysosome-Targeted Antimetastatic Agent” (J Med Chem, 2018)
# Active and inactive are the calls of the source. The rule behind the calls is not given here.
# Legend:
# K562 = experiment: Growth inhibition of human K562 cells after 48 hrs by MTT assay; assay type: functional, cell-based; conditions: K562, 48 h
# HCT-116 [1] = experiment: Growth inhibition of human HCT116 cells after 24 hrs by MTT assay; assay type: functional, cell-based
# CT26 [2] = experiment: Growth inhibition of mouse CT26 cells after 24 hrs by MTT assay; assay type: functional, cell-based
# Mus musculus [3] = experiment: Toxicity in Balb/c mouse implanted with mouse CT26 cells assessed as changes in body weight at 1 mg/kg, iv for 7 consecutive days starting from day 8 post tumor implantation; assay type: organism-based; conditions: in vivo
# Mus musculus [4] = experiment: Toxicity in Balb/c mouse implanted with mouse CT26 cells assessed as changes in body weight at 1 mg/kg, iv for 14 consecutive days starting from day 8 post tumor implantation; assay type: organism-based; conditions: in vivo
# Mus musculus [5] = experiment: Toxicity in Balb/c mouse implanted with mouse CT26 cells assessed as increase in heart weight at 1 mg/kg, iv for 7 consecutive days starting from day 8 post tumor implantation; assay type: organism-based; conditions: in vivo
# Mus musculus [6] = experiment: Toxicity in Balb/c mouse implanted with mouse CT26 cells assessed as increase in liver weight at 1 mg/kg, iv for 7 consecutive days starting from day 8 post tumor implantation; assay type: organism-based; conditions: in vivo
# Mus musculus [7] = experiment: Toxicity in Balb/c mouse implanted with mouse CT26 cells assessed as increase in spleen weight at 1 mg/kg, iv for 14 consecutive days starting from day 8 post tumor implantation; assay type: organism-based; conditions: in vivo
# HCT-116 [8] = experiment: Upregulation of SSAT protein expression in human HCT116 cells at 2.5 to 10 uM after 24 hrs by Western blot method; assay type: functional, cell-based
# HCT-116 [9] = experiment: Decrease in putrescine level in human HCT116 cells at 2.5 to 10 uM after 24 hrs by G1321A fluorescence detector coupled HPLC analysis; assay type: functional, cell-based
# [10] = Drug uptake in human HCT116 cell lysosomes at 10 uM after 2 hrs by Lyso-tracker staining based confocal microscopic method; assay type: ADME, subcellular, Lysosome; conditions: hct-116, 2 h
# HCT-116 [11] = experiment: Induction of autophagy in human HCT116 cells after 24 hrs by MDC staining based flow cytometry; assay type: functional, cell-based
# CT26 [12] = experiment: Induction of autophagy in mouse CT26 cells after 24 hrs by MDC staining based flow cytometry; assay type: functional, cell-based
# HCT-116 [13] = experiment: Induction of apoptosis in human HCT116 cells assessed as live cells at 10 uM after 24 hrs by annexin V-FITC/propidium iodide staining based flow cytometry (reference value: 89.97%); assay type: functional
# HCT-116 [14] = experiment: Induction of apoptosis in human HCT116 cells assessed as early apoptotic cells at 10 uM after 24 hrs by annexin V-FITC/propidium iodide staining based flow cytometry (reference value: 4.1%); assay type: functional
# HCT-116 [15] = experiment: Induction of apoptosis in human HCT116 cells assessed as late apoptotic cells at 10 uM after 24 hrs by annexin V-FITC/propidium iodide staining based flow cytometry (reference value: 2.03%); assay type: functional
# HCT-116 [16] = experiment: Induction of apoptosis in human HCT116 cells assessed as live cells at 10 uM after 24 hrs in presence of autophagy inhibitor 3-MA by annexin V-FITC/propidium iodide staining based flow cytometry (reference value: 89.97%); assay type: functional
# HCT-116 [17] = experiment: Induction of apoptosis in human HCT116 cells assessed as late apoptotic cells at 10 uM after 24 hrs in presence of autophagy inhibitor 3-MA by annexin V-FITC/propidium iodide staining based flow cytometry (reference value: 2.03%); assay type: functional
# HCT-116 [18] = experiment: Induction of apoptosis in human HCT116 cells assessed as necrotic cells at 10 uM after 24 hrs in presence of autophagy inhibitor 3-MA by annexin V-FITC/propidium iodide staining based flow cytometry (reference value: 3.9%); assay type: functional
# HCT-116 [19] = experiment: Induction of apoptosis in human HCT116 cells assessed as live cells at 10 uM after 24 hrs in presence of pan-caspase inhibitor Z-VAD-FMK by annexin V-FITC/propidium iodide staining based flow cytometry (reference value: 89.97%); assay type: functional
# HCT-116 [20] = experiment: Induction of apoptosis in human HCT116 cells assessed as early apoptotic cells at 10 uM after 24 hrs in presence of pan-caspase inhibitor Z-VAD-FMK by annexin V-FITC/propidium iodide staining based flow cytometry (reference value: 4.1%); assay type: functional
# CT26 [21] = experiment: Induction of apoptosis in mouse CT26 cells assessed as live cells at 10 uM after 24 hrs by annexin V-FITC/propidium iodide staining based flow cytometry (reference value: 89.47%); assay type: functional
# CT26 [22] = experiment: Induction of apoptosis in mouse CT26 cells assessed as early apoptotic cells at 10 uM after 24 hrs by annexin V-FITC/propidium iodide staining based flow cytometry (reference value: 3.91%); assay type: functional
# CT26 [23] = experiment: Induction of apoptosis in mouse CT26 cells assessed as necrotic cells at 10 uM after 24 hrs in presence of autophagy inhibitor 3-MA by annexin V-FITC/propidium iodide staining based flow cytometry (reference value: 4.36%); assay type: functional
# CT26 [24] = experiment: Induction of apoptosis in mouse CT26 cells assessed as late apoptotic cells after 24 hrs by annexin V-FITC/propidium iodide staining based flow cytometry; assay type: functional, cell-based
# CT26 [25] = experiment: Induction of autophagy in mouse CT26 cells at 5 to 20 uM after 24 hrs by Lyso staining based flow cytometry; assay type: functional, cell-based
# HCT-116 [26] = experiment: Induction of autophagy in human HCT116 cells at 5 to 20 uM after 24 hrs in presence of autophagy inhibitor 3-MA by Lyso staining based flow cytometry; assay type: functional, cell-based
# CT26 [27] = experiment: Induction of autophagy in mouse CT26 cells at 10 to 20 uM after 24 hrs in presence of autophagy inhibitor 3-MA by Lyso staining based flow cytometry; assay type: functional, cell-based
# HCT-116 [28] = experiment: Induction of autophagy in human HCT116 cells assessed as accumulation of LC3-2 after 24 hrs by Western blot method; assay type: functional, cell-based
# HCT-116 [29] = experiment: Upregulation of LAMP1 protein expression in human HCT116 cells at 10 uM after 24 hrs by Western blot method; assay type: functional, cell-based
# HCT-116 [30] = experiment: Downregulation of cathepsin-B protein expression in human HCT116 cells after 24 hrs by Western blot method; assay type: functional, cell-based
# HCT-116 [31] = experiment: Downregulation of cathepsin-D protein expression in human HCT116 cells after 24 hrs by Western blot method; assay type: functional, cell-based
# HCT-116 [32] = experiment: Downregulation of cathepsin-L protein expression in human HCT116 cells after 24 hrs by Western blot method; assay type: functional, cell-based
# HCT-116 [33] = experiment: Downregulation of p62 protein expression in human HCT116 cells after 24 hrs by Western blot method; assay type: functional, cell-based
# HCT-116 [34] = experiment: Downregulation of mTOR protein expression in human HCT116 cells after 24 hrs by Western blot method; assay type: functional, cell-based
# HCT-116 [35] = experiment: Downregulation of MMP2 protein expression in human HCT116 cells after 24 hrs by Western blot method; assay type: functional, cell-based
# HCT-116 [36] = experiment: Upregulation of cleaved caspase-3 protein expression in human HCT116 cells up to 10 uM after 24 hrs by Western blot method; assay type: functional, cell-based
# HCT-116 [37] = experiment: Upregulation of cleaved caspase-8 protein expression in human HCT116 cells up to 10 uM after 24 hrs by Western blot method; assay type: functional, cell-based
# HCT-116 [38] = experiment: Downregulation of Akt protein expression in human HCT116 cells up to 10 uM after 24 hrs by Western blot method; assay type: functional, cell-based
# HCT-116 [39] = experiment: Upregulation of p53 protein expression in human HCT116 cells up to 10 uM after 24 hrs in presence of autophagy inhibitor 3-MA by Western blot method; assay type: functional, cell-based
smiles,measurement,setting,value
Cl.Cl.Cl.NCCCCNCCCCNCCCCN1C(=O)c2cccc3cccc1c23,IC50,K562,12 µM
same,growth inhibition (GI),HCT-116 [1],Dose-dependent effect
same,IC50,"HCT-116 [1]; HCT-116, 24 h",6.9 µM
same,growth inhibition (GI),CT26 [2],Dose-dependent effect
same,IC50,"CT26 [2]; CT26, 24 h",11.6 µM
same,Activity,Mus musculus [3],Non-Toxic
same,Activity,Mus musculus [4],Non-Toxic
same,Activity,Mus musculus [5],Toxic
same,Activity,Mus musculus [6],Toxic
same,Activity,Mus musculus [7],Toxic
same,Activity,HCT-116 [8],Dose-dependent effect
same,Activity,HCT-116 [9],inactive
same,Drug uptake,[10],Active
same,Activity,HCT-116 [11],Dose-dependent effect
same,Activity,CT26 [12],Dose-dependent effect
same,Activity,HCT-116 [13],38.14%
same,Activity,HCT-116 [14],31.31%
same,Activity,HCT-116 [15],27.58%
same,Activity,HCT-116 [16],56.54%
same,Activity,HCT-116 [17],18.92%
same,Activity,HCT-116 [18],7.21%
same,Activity,HCT-116 [19],66.87%
same,Activity,HCT-116 [20],11.4%
same,Activity,CT26 [21],30.85%
same,Activity,CT26 [22],42.37%
same,Activity,CT26 [23],4.42%
same,Activity,CT26 [24],Dose-dependent effect
same,Activity,CT26 [25],Active
same,Activity,HCT-116 [26],inactive
same,Activity,CT26 [27],inactive
same,Activity,HCT-116 [28],Dose-dependent effect
same,Activity,HCT-116 [29],Active
same,Activity,HCT-116 [30],Dose-dependent effect
same,Activity,HCT-116 [31],Dose-dependent effect
same,Activity,HCT-116 [32],Dose-dependent effect
same,Activity,HCT-116 [33],Dose-dependent effect
same,Activity,HCT-116 [34],Dose-dependent effect
same,Activity,HCT-116 [35],Dose-dependent effect
same,Activity,HCT-116 [36],Active
same,Activity,HCT-116 [37],Active
same,Activity,HCT-116 [38],Active
same,Activity,HCT-116 [39],inactive
